Test results: patent US12509435B2, “Compounds for selective binding to estrogen receptors alpha/beta relative to GPER/GPR30 and methods of treating disease states and conditions mediated through these receptors” (UNM RAINFOREST INNOVATIONS, priority 2019, dated 2025)
Substitutions are numbered along the chain they refer to.

Tests used:
Assay type in all cases: cell-based
ERα = target: T1, ERα (Homo sapiens, UniProt P03372); test: Degradation of ERα in MCF-7 cells, Western blot; settings: indicated concentrations
T1 construct: endogenous in cells; host or cells: MCF-7
T1 sequence (P03372 1-595): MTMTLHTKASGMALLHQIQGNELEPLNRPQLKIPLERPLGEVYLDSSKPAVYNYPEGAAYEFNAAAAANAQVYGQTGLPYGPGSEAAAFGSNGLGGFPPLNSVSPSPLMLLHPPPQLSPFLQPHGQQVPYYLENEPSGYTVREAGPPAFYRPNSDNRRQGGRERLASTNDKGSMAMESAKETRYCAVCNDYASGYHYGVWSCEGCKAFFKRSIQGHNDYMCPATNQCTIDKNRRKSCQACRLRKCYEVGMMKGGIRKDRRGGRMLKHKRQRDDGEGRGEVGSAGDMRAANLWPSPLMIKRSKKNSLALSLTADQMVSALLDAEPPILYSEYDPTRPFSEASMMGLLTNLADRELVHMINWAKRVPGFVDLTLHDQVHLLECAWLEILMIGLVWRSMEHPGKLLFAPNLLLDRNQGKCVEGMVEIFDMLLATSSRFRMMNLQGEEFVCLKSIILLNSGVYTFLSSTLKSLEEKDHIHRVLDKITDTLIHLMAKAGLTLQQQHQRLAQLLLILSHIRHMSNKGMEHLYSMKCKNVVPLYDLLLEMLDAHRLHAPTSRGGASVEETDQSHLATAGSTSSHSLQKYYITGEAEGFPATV
Description: MCF-7 were treated with the indicated compounds and ERα protein levels were assessed by Western blot (top panel). Actin served as a loading control (bottom panel). Quantification of the western blot is shown on the right.

ERα-Y537S = target: T2, ERα-Y537S (Homo sapiens, UniProt P03372, Y537S); test: Degradation of HA-ERα-Y537S mutant in transfected HEK293 cells, Western blot; settings: HEK293 cells transfected with HA-ERα-Y537S, Western blot relative to actin
T2 construct: host or cells: HEK293
T2 sequence (P03372 1-595 Y537S): T1 sequence (P03372 1-595) with Y537S
From the text: HEK293 cells transfected with the HA-ERα-Y537S mutant were stimulated with the indicated compounds and HA-ERα-Y537S protein levels assessed by Western blot (left) and quantitated relative to actin (right).

[1] = test system: Tamoxifen-resistant MCF-7 cells (TamR) and long-term estrogen-deprived MCF-7 cells (LTED); test: Cell viability in cell line models of endocrine resistance after 5 days; settings: TamR and LTED MCF-7 cells, normalized to DMSO-treated cells
From the text: Cells were a gift from Dr. Donald McDonnell (Duke University).

CCCCN(C)C(=O)CCCCCCCCCCCC1=CCC2(CO)COC(c3ccc(O)cc3)C1C2 (stereo not drawn) [AB-82P, N-butyl-12-(1-(hydroxymethyl)-4-(4-hydroxyphenyl)-3-oxabicyclo[3.3.1]non-6-en-6-yl)-N-methyldodecanamide]
degradation of ERα protein levels (ERα): Dose-dependent degradation of ERα | degradation of HA-ERα-Y537S protein levels (ERα-Y537S): induced degradation of ERα-Y537S | effect on cell viability in models of endocrine resistance [1]: inhibitory effects
